Measurements published in US10544112B2, “Identification of ebsulfur analogues with broad-spectrum antifungal activity” (priority 2017, dated 2020).

Columns and labels:
[1] = test system: Aspergillus flavus ATCC MYA-3631 (strain K); experiment: Antifungal MIC determination, filamentous fungi spores; assay type: cell-based; conditions: all compounds
Method: (§1) Fungal MIC determination experiments were performed using untreated 96-well plates (Corning). Cells were counted either by using a hemocytometer (Hausser Scientific, Horsham, Pa., USA) or by measuring optical density at attenuance of 600 nm (OD600) by using a Genesys 20 spectrophotometer (Thermo Scientific, Waltham, Mass., USA). Spectrophotometric and colorimetric measurements in 96-well plates were performed using a SpectraMax M5 spectrometer (Molecular Devices, Sunnyvale, Calif., USA).
(§2) Yeast strains Candida albicans ATCC 10231 (strain A), C. albicans ATCC 64124 (strain B), and C. albicans ATCC MYA-2876(S) (strain C) were kindly provided by Dr. Jon Y. Takemoto (Utah State University, Logan, UT, USA). C. albicans ATCC MYA-90819(R) (strain D), C. albicans ATCC MYA-2310(S) (strain E), C. albicans ATCC 1237(R) (strain F), C. albicans ATCC MYA-1003(R) (strain G), Candida glabrata ATCC 2001 (strain H), Candida krusei ATCC 6258 (strain I), and Candida parapsilosis ATCC 22019 (strain J) were obtained from the American Type Culture Collection (ATCC, Manassas, Va., USA). The (S) and (R) indicate that ATCC reports these strains to be susceptible (S) and resistant (R) to ITC and FLC. The filamentous fungal strains Aspergillus flavus ATCC MYA-3631 (strain K), and Aspergillus terreus ATCC MYA-3633 (strain M) were also obtained from the American Type Culture Collection (ATCC, Manassas, Va., USA). Aspergillus nidulans ATCC 38163 (strain L) was kindly provided by Dr. Jon S. Thorson (University of Kentucky, Lexington, Ky., USA), respectively. Yeast strains were cultured at 35° C. Filamentous fungal strains were cultured at 25° C. and the spores were harvested. All fungal strains were cultured in RPMI 1640 medium (catalog # R6504, Sigma-Aldrich Chemical Co., St. Louis, Mo.) buffered to pH 7.0 with 0.165 M morpholinepropanesulfonic acid (MOPS) buffer (Sigma-Aldrich Chemical Co.).
(§3) The MIC values against fungal strains were determined based on a previously published protocol. MIC values for ebsulfur (2a) analogues against fungal cells were evaluated in 96-well plates as described in the CLSI document M27-A3 with minor modifications. […] Therefore, potato dextrose broth (PDB) was used to grow the yeast inocula of all strains tested, which were later diluted in RPMI 1640 medium to perform determination of MIC values. […] The tested compounds (10 mg/mL) were diluted to the working stocks (500 μg/mL) by addition of DMSO. Two-fold serial dilution of the working stocks was prepared by addition of RPMI 1640 medium (100 μL) and cell suspension (100 μL) to 96-well microtiter plate to achieve final drug and inoculum concentrations ranging from 12.5-0.02 μg/mL and 5×10^3 CFU/mL, respectively. Plates were incubated for 48 h at 35° C.
(§4) MIC assays for the spore-forming filamentous fungi, such as strain A. flavus ATCC MYA-3631 (strain K), were performed in a similar fashion. The filamentous fungal strains were first cultured at 25° C. on potato dextrose agar (PDA) plates for 3-5 days or until confluent. Spores were collected by washing the surface of the agar plates with dd H2O (5 mL) and then isolated the spores by gravity filtration (the spores are H2O soluble). […] Researchers working with spores should wear a facemask to prevent spore inhalation.

[2] = test system: Aspergillus nidulans ATCC 38163 (strain L); experiment: as above; assay type: cell-based; conditions: strain L; spores
Method: as §1, §2, §3, §4

[3] = test system: Aspergillus terreus ATCC MYA-3633 (strain M); experiment: as above; assay type: cell-based; conditions: strain M; all compounds; spores
Method: as §1, §2, §3, §4

Candida strains (A-J) = experiment: Antifungal MIC, summary over panel of Candida strains; assay type: cell-based; conditions: Candida strains A-J
Method: as §1, §2
as §3, with “C. […]” for “C.”

[4] = test system: Candida krusei ATCC 6258 (strain I); experiment: Antifungal MIC determination (CLSI M27-A3, 96-well); assay type: cell-based; conditions: strain I; compounds 1-4n and AmB; 48 h, RPMI 1640
Method: as §1, §2
as §3, with “C. […]” for “C.”

[5] = test system: Candida parapsilosis ATCC 22019 (strain J); experiment: as above; assay type: cell-based; conditions: strain J; compounds 1-4n and AmB; 48 h, RPMI 1640
Method: as §1, §2
as §3, with “C. […]” for “C.”

[6] = test system: Candida albicans ATCC 10231 (strain A); experiment: as above; assay type: cell-based; conditions: strain A; compounds 1-4n and AmB; 48 h, RPMI 1640
Method: as §1, §2
as §3, with “C. […]” for “C.”

[7] = test system: Candida glabrata ATCC 2001 (strain H); experiment: as above; assay type: cell-based; conditions: strain H; compounds 1-4n and AmB; 48 h, RPMI 1640
Method: as §1, §2
as §3, with “C. […]” for “C.”

[8] = test system: C. albicans ATCC MYA-2310(S) (strain E); experiment: as above; assay type: cell-based, Candida albicans; conditions: strain E; compounds 1-4n and AmB; 48 h, RPMI 1640
Method: as §1, §2
as §3, with “C. […]” for “C.”

[9] = test system: C. albicans ATCC MYA-2876(S) (strain C); experiment: as above; assay type: cell-based, Candida albicans; conditions: strain C; compounds 1-4n and AmB; 48 h, RPMI 1640
Method: as §1, §2
as §3, with “C. […]” for “C.”

[10] = test system: C. albicans ATCC MYA-1237(R) (strain F); experiment: microbe, parasite or virus in culture; assay type: cell-based, Candida albicans; conditions: strain F; compounds 1-4n and AmB; 48 h, RPMI 1640
Method: as §1, §2
as §3, with “C. […]” for “C.”

[11] = test system: C. albicans ATCC 64124 (strain B); experiment: microbe, parasite or virus in culture; assay type: cell-based, Candida albicans; conditions: strain B; compounds 1-4n and AmB; 48 h, RPMI 1640
Method: as §1, §2
as §3, with “C. […]” for “C.”

[12] = test system: C. albicans ATCC MYA-1003(R) (strain G); experiment: microbe, parasite or virus in culture; assay type: cell-based, Candida albicans; conditions: strain G; compounds 1-4n and AmB; 48 h, RPMI 1640
Method: as §1, §2
as §3, with “C. […]” for “C.”

[13] = test system: C. albicans ATCC 90819(R) (strain D); experiment: microbe, parasite or virus in culture; assay type: cell-based, Candida albicans; conditions: strain D; compounds 1-4n and AmB; 48 h, RPMI 1640
Method: as §1, §2
as §3, with “C. […]” for “C.”

C#Cc1ccc(-n2sc3ccccc3c2=O)cc1 [Compound 2f]
>12.5 µg/mL: MIC-0 [8] | MIC-0 [9]
6.25 µg/mL: MIC-0 [4] | MIC-0 [7]
12.5 µg/mL: MIC-0 [1] | MIC-0 [2] | MIC-0 [3] | MIC-0 [5] | MIC-0 [6] | MIC-0 [10] | MIC-0 [11] | MIC-0 [12] | MIC-0 [13]
> 12.5 µg/mL: MIC values against Candida strains, range (Candida strains (A-J))

O=c1c2ccccc2sn1-c1cccc(Br)c1 [Compound 2g]
>12.5 µg/mL: MIC-0 [6] | MIC-0 [8]
> 12.5 µg/mL: MIC values against Candida strains, range (Candida strains (A-J))
12.5 µg/mL: MIC-0 [1] | MIC-0 [2] | MIC-0 [3] | MIC-0 [4] | MIC-0 [5] | MIC-0 [7] | MIC-0 [9] | MIC-0 [10] | MIC-0 [11] | MIC-0 [12] | MIC-0 [13]

O=c1c2ccccc2sn1-c1ccc(Cl)cn1 [Compound 2n]
12.5 µg/mL: MIC-0 [6] | MIC-0 [8] | MIC-0 [9] | MIC-0 [10] | MIC-0 [11] | MIC-0 [12]
> 12.5 µg/mL: MIC values against Candida strains, range (Candida strains (A-J))
>12.5 µg/mL: MIC-0 [1] | MIC-0 [2] | MIC-0 [3] | MIC-0 [4] | MIC-0 [5] | MIC-0 [7] | MIC-0 [13]

CCCCCCCCCCCCn1sc2ccccc2c1=O [Compound 3d]
12.5 µg/mL: MIC-0 [7]
> 12.5 µg/mL: MIC values against Candida strains, range (Candida strains (A-J))
>12.5 µg/mL: MIC-0 [1] | MIC-0 [2] | MIC-0 [3] | MIC-0 [4] | MIC-0 [5] | MIC-0 [6] | MIC-0 [8] | MIC-0 [9] | MIC-0 [10] | MIC-0 [11] | MIC-0 [12] | MIC-0 [13]

O=c1c2ccccc2sn1CCCc1ccccc1 [Compound 3j]
3.13 µg/mL: MIC-0 [11] | MIC-0 [13]
0.78 µg/mL: MIC-0 [1]
1.56 to 62.5 µg/mL: MIC values against Candida strains, range (Candida strains (A-J))
6.25 µg/mL: MIC-0 [5] | MIC-0 [6] | MIC-0 [8] | MIC-0 [9] | MIC-0 [10] | MIC-0 [12]
0.20 µg/mL: MIC-0 [2] | MIC-0 [3]
1.56 µg/mL: MIC-0 [4] | MIC-0 [7]

O=c1c2ccccc2sn1C1CCCC1 [Compound 3k]
1.56 µg/mL: MIC-0 [5] | MIC-0 [11]
0.78 µg/mL: MIC-0 [7] | MIC-0 [9] | MIC-0 [12]
0.20 µg/mL: MIC-0 [1]
0.39 to 1.56 µg/mL: MIC values against Candida strains, range (Candida strains (A-J))
0.10 µg/mL: MIC-0 [2] | MIC-0 [3]
0.39 µg/mL: MIC-0 [4] | MIC-0 [6] | MIC-0 [8] | MIC-0 [10] | MIC-0 [13]

O=c1c2ccccc2sn1C1CCCCC1 [Compound 3l]
1.56 µg/mL: MIC-0 [5] | MIC-0 [7] | MIC-0 [8] | MIC-0 [11] | MIC-0 [12]
0.20 µg/mL: MIC-0 [1] | MIC-0 [2] | MIC-0 [3]
3.13 µg/mL: MIC-0 [9]
0.78 µg/mL: MIC-0 [4] | MIC-0 [6] | MIC-0 [10] | MIC-0 [13]
0.78 to 3.13 µg/mL: MIC values against Candida strains, range (Candida strains (A-J))
